From patent US20260083703A1, “INDOLINE DERIVATIVES AS SEROTONERGIC AGENTS USEFUL FOR THE TREATMENT OF DISORDERS RELATED THERETO” (MINDSET PHARMA INC., priority 2022, published 2026)
Where “and” joins values, the source holds several entries; their conditions need not be identical. Identical values can stand only once.

What was measured:
[1] = biological target: T1, human 5-HT2A (h5-HT2A) receptor (Homo sapiens, UniProt P28223); assay: FLIPR assay, human 5-HT2A, agonist mode; format: cell-based
T1 construct: expressed in transfected cells; grown under G418 and hygromycin B selection
T1 sequence (P28223 whole entry): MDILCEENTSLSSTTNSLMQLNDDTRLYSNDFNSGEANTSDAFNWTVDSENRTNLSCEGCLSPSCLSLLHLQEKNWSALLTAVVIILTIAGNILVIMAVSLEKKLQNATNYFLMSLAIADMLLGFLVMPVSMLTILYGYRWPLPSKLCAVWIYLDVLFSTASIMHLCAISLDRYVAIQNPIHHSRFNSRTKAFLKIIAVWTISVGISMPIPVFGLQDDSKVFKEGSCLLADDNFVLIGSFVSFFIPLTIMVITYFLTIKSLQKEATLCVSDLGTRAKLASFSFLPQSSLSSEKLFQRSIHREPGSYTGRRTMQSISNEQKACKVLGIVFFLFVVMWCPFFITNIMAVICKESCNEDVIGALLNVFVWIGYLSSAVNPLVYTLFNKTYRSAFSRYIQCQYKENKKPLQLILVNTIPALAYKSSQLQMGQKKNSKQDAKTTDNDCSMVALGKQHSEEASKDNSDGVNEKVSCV
Description: I. Assessment of the Effect of Exemplary Compounds of Formula I Targeting on Human 5-HT2A (h5-HT2A) Receptor Under Agonist Mode:
I.c. Experimental Methods and Procedures: • 1. Cells were cultured in cell culture medium (DMEM containing 10% FBS, 1×penicillin-streptomycin 300 μg/ml G418 and 100 μg/ml hygromycin B) at 37° C., 5% (v/v) CO2. • 2. One day before the assays, the cells were detached using TrypLE™ Express and cells were counted using cell counter. Only cells with >85% viability were used for the assay. • 3. 20000 cells/well were seeded in 30 μl/well culture medium to a 384-well cell plate and cells were incubated overnight at 37° C., 5% (v/v) CO2. • 4. On the assay day, 2×dye solution was prepared following the manual of the FLIPR® Calcium 6 Assay Kit: i. The dye was diluted with assay buffer (20 mM HEPES in 1×HBSS, PH7.4); ii. Probenecid was added to the final concentration of 5 mM; iii. Vortex vigorously for 1-2 minutes. • 5. Medium was removed from cell plate by flicking the cell plate on towel papers. • 6. 10 μl of assay buffer and 10 μl of 2×dye solution was added to each well of the cell plate. • 7. The cell plate was placed on plate shaker, the plate was agitated at 600 rpm for 2 minutes. The plate was incubated at 37° C. for 2 hours followed by additional 15-minute incubation at 25° C. • 8. 3×compound in assay buffer was prepared: a. Reference compounds were diluted to required concentration with DMSO. The compounds were added to a 384-well compound plate; b. Serial dilutions were performed; c. 10 mM test compounds were added to the compound plate, and 3-fold serial dilutions were performed. d. Transfer 60 nl/well of compounds from source plate to a 384-well compound plate (Corning, 3657) by using an Echo; e. Add 20 μl/well assay buffer to the compound plate; f. Mix the plate on plate shaker for 2 mins; • 9. The cell plate, compound plate and tips were put into FLIPR, 10 μl of 3× compound was transferred to the cell plate per well with FLIPR.
• i. The normalized fluorescence reading (RFU) was calculated as shown below, where Fmax and Fmin stand for maximum and minimum of calcium signal during defined time window: RFU=Fmax−Fmin. • ii. Calculate the percentage activation using following equation:
[formula] • Iii. Calculate EC50 by fitting % activation against log of compound concentrations with Hill equation using XLfit.

Male, C57BL/6J mice = assay: Mouse head twitch; format: in vivo
Description: The effect of different doses of representative compounds of Formula I are evaluated on head-twitch response (HTR) and other behavioural responses as behavior-based models of psychedelic activity.
Male, C57BL/6J mice (body weight range 20-30 g) were dosed with the appropriate dose of test article, and following a 1-minute pre-treatment time, placed in individual observation chambers. Animals were visually assessed for the incidence head twitches continuously over a 1 hr period. Head twitches were defined as a rapid jerk of the head which was not elicited by an external tactile stimulus (Come and Pickering, Psychopharmacologia, 1967, 11(1): 65-78). Each head twitch was individually counted by a trained observer, and the data expressed as the mean±SEM of 6-10 mice per group. Mice were used in a single experiment only.

[2] = Liver microsomes stability, rat; conditions: for CLint scaled at 2 μM / half-life at 2 μM / microsomal CLint at 2 μM: rat liver microsomes
[3] = Liver microsomes stability, human; conditions: human; for CLint scaled at 2 μM / half-life at 2 μM / microsomal CLint at 2 μM: pooled human liver microsomes
[4] = Liver microsomes stability, mouse; conditions: for CLint scaled at 2 μM / half-life at 2 μM / microsomal CLint at 2 μM: male, microsomes

| Structure (SMILES) | EC50 [1] | 5-HT2A (FLIPR) RFU@10 μM [1] | Predicted hepatic CL [2] | Remaining Percentage ([2]; With NADPH, 0 min) | Remaining Percentage ([2]; With NADPH, 30 min) | Remaining Percentage ([2]; With NADPH, 60 min) | Remaining Percentage ([2]; Without NADPH, 0 min) | Remaining Percentage ([2]; Without NADPH, 30 min) | Remaining Percentage ([2]; Without NADPH, 60 min) | CLint scaled at 2 μM [2] | half-life at 2 μM [2] | microsomal CLint at 2 μM [2] | Predicted hepatic CL [3] | Remaining Percentage ([3]; With NADPH, 0 min) | Remaining Percentage ([3]; With NADPH, 30 min) | Remaining Percentage ([3]; With NADPH, 60 min) | Remaining Percentage ([3]; Without NADPH, 0 min) | Remaining Percentage ([3]; Without NADPH, 30 min) | Remaining Percentage ([3]; Without NADPH, 60 min) | CLint scaled at 2 μM [3] | further results |
| --- | --- | --- | --- | --- | --- | --- | --- | --- | --- | --- | --- | --- | --- | --- | --- | --- | --- | --- | --- | --- | --- |
| COc1ccc2c(c1)C(C[C@H]1CCCN1C)CN2 (stereo partly drawn) [(R)-I-54] | 17 nM and 25 nM | 993 RFU and 990 RFU | 49.19 mL/min/kg | 100.00% | 2.28% | 0.48% | 100.00% | 103.93% | 97.75% | 452 mL/min/kg | 5.5 min | 252 µL/min/mg | 13.52 mL/min/kg | 100.00% | 66.49% | 39.38% | 100.00% | 116.22% | 93.51% | 39 mL/min/kg | head twitch response (mean head twitches over 1 hr) (Male, C57BL/6J mice; 1 mg/kg SC): 0.7; head twitch response (mean head twitches over 1 hr) (Male, C57BL/6J mice; 3 mg/kg SC): 0.2; head twitch response (mean head twitches over 1 hr) (Male, C57BL/6J mice; 10 mg/kg SC): 1.2; head twitch response (mean head twitches over 1 hr) (Male, C57BL/6J mice; 30 mg/kg SC): 1.8; head twitch response (mean head twitches over 1 hr) (Male, C57BL/6J mice; 60 mg/kg SC): 0.8; dose of peak head twitch response (Male, C57BL/6J mice; SC): 30 mg/kg; head twitch response over the dose range tested (Male, C57BL/6J mice; SC, psilocybin 0.1-10, 5-MeO DMT 1-30, (R)-I-54 1-60 mg/kg): only a modest head twitch response; half-life at 2 μM [3]: 44.6 min; microsomal CLint at 2 μM [3]: 31.1 µL/min/mg; Predicted hepatic CL [4]: 70.39 mL/min/kg; Remaining Percentage ([4]; With NADPH, 0 min): 100.00%; Remaining Percentage ([4]; With NADPH, 30 min): 34.74%; Remaining Percentage ([4]; With NADPH, 60 min): 10.91%; Remaining Percentage ([4]; Without NADPH, 0 min): 100.00%; Remaining Percentage ([4]; Without NADPH, 30 min): 98.80%; Remaining Percentage ([4]; Without NADPH, 60 min): 91.62%; CLint scaled at 2 μM [4]: 323 mL/min/kg; half-life at 2 μM [4]: 18.8 min; microsomal CLint at 2 μM [4]: 73.8 µL/min/mg |
| CN1CCC[C@@H]1C[C@H]1CNc2ccc(F)cc21 [(R),(R)-I-47, (R)-5-fluoro-3-(((R)-I-methylpyrrolidin-2-yl)methyl)indoline] | 91 nM | 787 RFU | 45.31 mL/min/kg | 100.00% | 5.12% | 1.45% | 100.00% | 108.30% | 100.00% | 253 mL/min/kg | 9.82 min | 141 µL/min/mg | 2.74 mL/min/kg | 100.00% | 108.74% | 92.73% | 100.00% | 102.35% | 95.13% | 3.15 mL/min/kg | half-life at 2 μM [3]: 551 min; microsomal CLint at 2 μM [3]: 2.51 µL/min/mg; Predicted hepatic CL [4]: 13.24 mL/min/kg; Remaining Percentage ([4]; With NADPH, 0 min): 100.00%; Remaining Percentage ([4]; With NADPH, 30 min): 114.03%; Remaining Percentage ([4]; With NADPH, 60 min): 89.90%; Remaining Percentage ([4]; Without NADPH, 0 min): 100.00%; Remaining Percentage ([4]; Without NADPH, 30 min): 114.71%; Remaining Percentage ([4]; Without NADPH, 60 min): 87.16%; CLint scaled at 2 μM [4]: 15.5 mL/min/kg; half-life at 2 μM [4]: 391 min; microsomal CLint at 2 μM [4]: 3.55 µL/min/mg |
